Read-outs that look alike come from different tables or passages of the source.
Experiments:
K-Ras = K-Ras (Homo sapiens, UniProt P01116); assay: K-Ras inhibition assay in HT-29 cells; format: cell-based; conditions: for IC50: read-out: K-Ras inhibition IC50
quinone reductase [1] = assay: Quinone reductase induction assay in Hepa 1c1c7 cells; format: cell-based, mouse; conditions: for CD, concentration required to double quinone reductase activity: 48 h
Hepa 1c1c7 cells = assay: Cytotoxicity against Hepa 1c1c7 cells; format: cell-based, mouse; conditions: read-out: IC50, concentration that inhibits 50% cell growth
quinone reductase [2] = conditions: in vitro; cited from earlier work
p65 subunit of NF-κB = p65 subunit of NF-κB (Homo sapiens, UniProt Q04206); assay: cell-based; format: cell-based
p65 subunit of NF-κB, sequence (Q04206 whole entry): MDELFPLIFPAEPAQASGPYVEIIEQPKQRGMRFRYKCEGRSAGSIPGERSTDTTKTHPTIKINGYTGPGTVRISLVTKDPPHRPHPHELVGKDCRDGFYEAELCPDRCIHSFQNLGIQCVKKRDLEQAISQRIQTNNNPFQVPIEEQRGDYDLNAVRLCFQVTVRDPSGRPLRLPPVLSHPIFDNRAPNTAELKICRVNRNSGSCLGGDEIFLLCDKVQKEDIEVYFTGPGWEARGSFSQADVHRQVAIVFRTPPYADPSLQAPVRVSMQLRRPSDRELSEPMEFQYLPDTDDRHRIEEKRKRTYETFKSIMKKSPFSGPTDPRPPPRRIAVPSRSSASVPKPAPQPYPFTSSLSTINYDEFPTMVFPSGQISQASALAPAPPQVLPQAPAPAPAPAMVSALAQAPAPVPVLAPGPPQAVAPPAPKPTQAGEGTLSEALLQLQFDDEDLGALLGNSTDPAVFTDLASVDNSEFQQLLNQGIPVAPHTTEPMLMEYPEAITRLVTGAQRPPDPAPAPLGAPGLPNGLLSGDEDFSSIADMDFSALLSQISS

mice = conditions: cited from earlier work; for LD50, acute toxicity to mice: ip administration
[3] = system: CCD-112CoN human normal colon cell line; conditions: cited from earlier work
in vitro = conditions: human
[4] = read-out: NF-κB p65 inhibition IC50, in HeLa cells

COc1cc2c(cc1OC)C1(O)C(=O)c3c(O)cc4c(c3OC1CO2)C=CC(C)(C)O4 (single isomer, unassigned; (+)) [Compound 11, (+)-3-hydroxy-α-toxicarol]
K-Ras inhibitory activity (in words) (K-Ras): inactive | CD, concentration required to double quinone reductase activity (quinone reductase [1]): 6.6 µM | IC50 (Hepa 1c1c7 cells; Hepa 1c1c7 cell line, 48 h): > 40 µM

caeruleanone C
Quinone reductase (QR) induction (in words) (quinone reductase [2]): potently induce

COc1cc2c(c3c1OC(C)(C)C=C3)O[C@H]1COc3cc4c(cc3[C@@]1(O)C2=O)OCO4 [Compound 1, (5aS ,12bS)-5a,12b-dihydro-12b-hydroxy-15-methoxy-2,2-dimethyl-2H-[1, 3]dioxolo[4,5-g]pyrano[2,3-c:6,5-f ‘]bis[1]benzopyran-13(6H)-one]
IC50 (p65 subunit of NF-κB; [4]): > 10 µM | IC50 (K-Ras): 9.4 µM | CD, concentration required to double quinone reductase activity (quinone reductase [1]): 19.8 µM | IC50 (Hepa 1c1c7 cells; Hepa 1c1c7 cell line, 48 h): > 40 µM

C[S@@+]([O-])CCCCN=C=S [L-sulforaphane, reference compound]
CI, chemopreventive index (IC50/CD) (quinone reductase [1]): 40.8 | CD, concentration required to double quinone reductase activity (quinone reductase [1]): 0.51 µM | IC50 (Hepa 1c1c7 cells; Mus musculus, Hepa-1c1c7, 48 h): 20.9 µM

COc1cc2c(cc1OC)[C@@H]1C(=O)c3ccc4c(c3O[C@@H]1CO2)C=CC(C)(C)O4 [deguelin, reference compound]
LD50, acute toxicity to mice (mice): 5.0 mg/kg

(−)-3-hydroxyrotenone [Compound 6]
IC50 (p65 subunit of NF-κB; [4]): 5.3 µM | IC50 (K-Ras): 3.1 µM | Cytotoxicity against the CCD-112CoN human normal colon cell line (in words) [3]: lack of cytotoxicity | Lethality to mice (mice; dose of 5 mg/kg (ip)): lethal

COC1=CC2=C(O[C@H]3COc4cc5c(cc4[C@@]3(O)C2=O)OCO5)C(CC=C(C)C)(CC=C(C)C)C1=O (relative stereo) [Compound 3, (6aS,12aS)-rel-6a,12a-dihydro-12a-hydroxy-10-methoxy-8,8-bis(3-methyl-2-buten-1-yl)-[1]benzopyrano[2,3-c]-1,3-dioxolo[4,5-g][1] benzopyran-9,12(6H, 8H)-dione]
CI, chemopreventive index (IC50/CD) (quinone reductase [1]): >16.8 | CD, concentration required to double quinone reductase activity (quinone reductase [1]): 2.4 µM | IC50 (Hepa 1c1c7 cells; Hepa 1c1c7 cell line, 48 h): > 40 µM

COc1cc2c(c3c1OC(C)(C)C=C3)O[C@H]1COc3cc4c(cc3[C@H]1C2=O)OCO4 [Compound 2, (5aR, 12bR)-5a,12b-dihydro-15-methoxy-2,2-dimethyl-2H-[1, 3]dioxolo[4,5-g]pyrano[2,3-c:6,5-f'] bis[1]benzopyran-13(6H)-one]
CI, chemopreventive index (IC50/CD) (quinone reductase [1]): 8.1 | CD, concentration required to double quinone reductase activity (quinone reductase [1]): 2.2 µM | IC50 (Hepa 1c1c7 cells; Hepa 1c1c7 cell line, 48 h): 17.8 µM

C=C(C)[C@H]1Cc2c(ccc3c2O[C@@H]2COc4cc(OC)c(OC)cc4[C@@H]2C3=O)O1 [Compound 7, (−)-rotenone]
IC50 (p65 subunit of NF-κB): > 10 µM | IC50 at 3 days (in vitro): 0.3 µM | Cytotoxicity against the CCD-112CoN human normal colon cell line (in words) [3]: lack of cytotoxicity | LD50, acute toxicity to mice (mice): 2.5 mg/kg

COc1cc2c(cc1-c1coc3c4c(c(OC)cc3c1=O)OC(C)(C)C=C4)OCO2 [Compound 8, ichthynone]
IC50 (p65 subunit of NF-κB): > 10 µM | CI, chemopreventive index (IC50/CD) (quinone reductase [1]): 19.4 | CD, concentration required to double quinone reductase activity (quinone reductase [1]): 1.8 µM | IC50 (Hepa 1c1c7 cells; Mus musculus, Hepa-1c1c7, 48 h): 35 µM | IC50 (in vitro): > 10 µM

Source: publication PMC4956498 (Planta medica, 2016)
